Experimental data taken from PubChem BioAssay (NCI).
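Five concentrations, 48 hours, 96-well plates. GI50 = concentration required for 50% inhibition of growth. The concentration for full growth arrest is given as TGI.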

Assays:
Assay in all cases: inhibition of tumour cell growth, NCI panel, 48 h
UACC-257 melanoma = test system: UACC-257 melanoma
COLO 205 colon = test system: COLO 205 colon
HS 578T breast = test system: HS 578T breast
TK-10 renal = test system: TK-10 renal
NCI-H23 lung = test system: NCI-H23 lung
HCC-2998 colon = test system: HCC-2998 colon
RXF 393 renal = test system: RXF 393 renal
OVCAR-5 ovarian = test system: OVCAR-5 ovarian
A549 NSCLC = test system: A549 NSCLC
UO-31 renal = test system: UO-31 renal

Compound | TGI (UACC-257 melanoma) | TGI (COLO 205 colon) | TGI (HS 578T breast) | TGI (TK-10 renal) | TGI (NCI-H23 lung) | TGI (HCC-2998 colon) | TGI (RXF 393 renal) | TGI (OVCAR-5 ovarian) | TGI (A549 NSCLC) | GI50 (UACC-257 melanoma) | GI50 (COLO 205 colon) | GI50 (HS 578T breast) | GI50 (UO-31 renal) | TGI (UO-31 renal) | GI50 (TK-10 renal) | GI50 (NCI-H23 lung) | GI50 (HCC-2998 colon) | GI50 (RXF 393 renal) | GI50 (OVCAR-5 ovarian) | GI50 (A549 NSCLC)
C=C1C(=O)O[C@@H]2/C=C(/C)[C@@H](OC(C)=O)C/C=C(\C)C(O)[C@@H](OC(=O)/C(C)=C\C)C12 (some centres undefined) | > 100 µM | 32 µM | > 100 µM | > 100 µM | > 100 µM | 55.4 µM | 79.4 µM | > 100 µM | > 100 µM | – | – | – | – | – | – | – | – | – | – | –
CN1CCN(C2=NC(=O)/C(=C\c3ccc(N(C)C)cc3)S2)CC1 | > 100 µM | > 100 µM | > 100 µM | > 100 µM | > 100 µM | > 100 µM | > 100 µM | > 100 µM | > 100 µM | > 100 µM | > 100 µM | > 100 µM | 71 µM | > 100 µM | > 100 µM | > 100 µM | > 100 µM | 45.4 µM | > 100 µM | > 100 µM
COc1ccc(-c2ccc(OC)c(OC)c2OC)cc1 | > 100 µM | 6.83 µM | > 23.1 µM | > 100 µM | > 100 µM | 32 µM | > 100 µM | > 100 µM | > 100 µM | > 73.8 µM | 1.74 µM | 1.82 µM | 4.6 µM | > 100 µM | 5.1 µM | 4.19 µM | 2.65 µM | 2.83 µM | 8.66 µM | 5.74 µM
CC1CCC2C(C)C(=O)OC2C2(C)C(=O)C=CC12 (centres undefined) | > 10 µM | > 10 µM | > 10 µM | > 10 µM | > 10 µM | > 10 µM | > 10 µM | > 10 µM | > 10 µM | – | – | – | – | > 10 µM | – | – | – | – | – | –
Cn1c(COC(=O)NCCc2ccccn2)nc2c(N3CCOCC3)nc(Cl)nc21 | 3.28 µM | 3.61 µM | 6.22 µM | 3.34 µM | 4.7 µM | 3.57 µM | 2.45 µM | 3.68 µM | 5.96 µM | 1.53 µM | 1.72 µM | 2 µM | 1.19 µM | 2.45 µM | 1.72 µM | 2 µM | 1.76 µM | 1.06 µM | 1.73 µM | 1.85 µM
CC(C)(C)C[C@H]1N[C@@H](C(=O)NC2CCC(O)CC2)[C@H](c2cccc(Cl)c2F)[C@@]12C(=O)Nc1cc(Cl)ccc12 (some centres undefined) | 13.7 µM | 16 µM | 56.8 µM | 25 µM | 29.2 µM | 13.1 µM | 17.2 µM | 15.2 µM | 16.4 µM | 1.16 µM | 3.67 µM | 6.51 µM | 0.646 µM | 11.1 µM | 11.9 µM | 11.1 µM | 3.64 µM | 3.38 µM | 3.88 µM | 0.778 µM
Cc1ccc(/C(=N/Nc2ccc([N+](=O)[O-])cc2)Sc2cc(Cl)c(C)cc2S(N)(=O)=O)cc1 | 18.8 µM | > 23.2 µM | > 23.5 µM | 3.38 µM | 3.59 µM | 3.66 µM | 6.52 µM | 6.16 µM | 7.45 µM | 6.45 µM | 2.98 µM | 2.45 µM | 2.56 µM | 10.7 µM | 1.61 µM | 1.64 µM | 1.76 µM | 2.01 µM | 2.45 µM | 2.55 µM
